Earlier results as cited in US8888736B2, “High shear application in medical therapy” (H R D Corporation, priority 2010, dated 2014).
In brackets after ≈: the same amount, converted by molar mass. Like-named read-outs stand apart in the source and are kept apart here.

Legend:
[1] = believed to average around

Structure (SMILES): CCCl [chloroethane]
- solubility (water at 20° C.): 0.0078 mol/L (≈ 503 µg/mL)

Structure (SMILES): C1CC1 [cyclopropane]
- solubility (in water at 21° C.): 537 ppm

Structure (SMILES): C=COC=C [divinyl ether]
- solubility (water at 37° C.): 0.0749 mol/L (≈ 5250 µg/mL)

Structure (SMILES): CCCl [ethylchloride]
- solubility (in water at 21° C.): 0.678 % by weight

Structure (SMILES): C=C [ethylene]
- solubility (water at 20° C.): 0.015 g/100 ml

Structure (SMILES): S [hydrogen sulfide]
- toxic level in the body [1]: 300-350 ppm

Structure (SMILES): ClC=C(Cl)Cl [trichloroethylene]
- solubility (water at 20° C.): 0.1 g/100 ml
